Data set [1] concerns M. bovis BCG. Nature of the data set: microbe, parasite or virus in culture. It is filed as cell-based. To be noted: Mycobacterium tuberculosis variant bovis BCG, read-out: MIC M. bovis BCG.
The test system of data set [2] is M. tuberculosis H37Rv. Description: Antimycobacterial MIC / primary screening, MABA (microplate alamar blue assay). It is filed as cell-based. Conditions: Mycobacterium tuberculosis. A general note: The colour change of resazurin is a common sign of viable cells or microbes.
The subject of data set [3] is M. abscessus. Nature of the data set: Antimycobacterial MIC / primary screening, MABA. It counts as cell-based. Conditions: Mycobacteroides abscessus, read-out: MIC M. abscessus.
The subject of data set [4] is L929 cells. Nature of the data set: Cytotoxicity, MTT protocol (ISO 10993-5:2009(E)). It is filed as cell-based. Conditions: ratio to MIC against M. tuberculosis. The protocol:
This evaluation adhered precisely to international standards (ISO 10993-5:2009(E)), employing L929 cells and the MTT protocol ([Bekier et al., 2021]). The determination of the half maximal inhibitory concentration (IC50) values was carried out for 12 out of the 13 compounds tested, considering the occurrence of derivative precipitation in the growth medium for L929 cells (Table 1). […] For two compounds (5g and 5i), the discriminatory index (IC50/MIC) was identified at the level of 20.

Data set [5] concerns the target MTB InhA (Mycobacterium tuberculosis, UniProt P9WGR1). Nature of the data set: InhA inhibition endpoint assay. It is filed as biochemical. Conditions: read-out: IC50 against InhA.

SMILES strings stand for the structures. Values after ≈ are worked out from the molar mass of the structure shown.

Sequence of MTB InhA (P9WGR1 whole entry, looked up): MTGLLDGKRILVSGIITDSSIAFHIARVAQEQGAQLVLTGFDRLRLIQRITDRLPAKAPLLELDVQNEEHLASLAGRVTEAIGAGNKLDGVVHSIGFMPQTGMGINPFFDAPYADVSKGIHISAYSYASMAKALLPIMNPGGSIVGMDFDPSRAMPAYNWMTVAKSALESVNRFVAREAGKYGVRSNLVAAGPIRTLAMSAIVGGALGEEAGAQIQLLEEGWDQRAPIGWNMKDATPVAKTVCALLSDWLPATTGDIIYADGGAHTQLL

Turning to `COc1ccc(-n2nnc(-c3cc(C(=O)O)c4cc(Br)ccc4n3)c2C)cc1` [Compound 5r, 6-Bromo-2-(1-(4-methoxyphenyl)-5-methyl-1H-1,2,3-triazol-4-yl)benzo [b]pyridine-4-carboxylic acid], the melting point fell in the range of 294 to 295 °C. Also, in data set [1], the MIC was less than 125 µg/mL. Besides, the MIC in data set [2] came out at 15 µg/mL (≈ 34.1 µM). In addition, the MIC in data set [3] was more than 125 µg/mL. The “IC50-L929/MIC Mtb (cytotoxicity / discriminatory index)” value in data set [4] was found to be 5.
Taken in the same sequence, the figures for `Cc1c(-c2cc(C(=O)O)c3cc(Br)ccc3n2)nnn1-c1ccc(Cl)cc1` [Compound 5v, 6-Bromo-2-(1-(4-chlorophenyl)-5-methyl-1H-1,2,3-triazol-4-yl)benzo [b]pyridine-4-carboxylic acid] were more than 300 °C, less than 125 µg/mL, 15 µg/mL (≈ 33.8 µM), more than 125 µg/mL and 13.
Compound `Cc1c(-c2cc(C(=O)O)c3cc(Br)ccc3n2)nnn1-c1ccc(Br)cc1` [Compound 5w, 6-Bromo-2-(1-(4-bromophenyl)-5-methyl-1H-1,2,3-triazol-4-yl)benzo [b]pyridine-4-carboxylic acid] had a melting point of more than 300 °C. Moreover, the MIC in data set [1] is less than 125 µg/mL. In data set [2], this compound showed an MIC of 15 µg/mL (≈ 30.7 µM). Moreover, the MIC in data set [3] is more than 125 µg/mL. Moreover, in data set [4], the “IC50-L929/MIC Mtb (cytotoxicity / discriminatory index)” value was determined as 10.
With `Cc1c(-c2cc(C(=O)O)c3cc(Cl)ccc3n2)nnn1-c1ccc([N+](=O)[O-])cc1` [Compound 5p, 6-Chloro-2-(5-methyl-1-(4-nitrophenyl)-1H-1,2,3-triazol-4-yl)benzo [b]pyridine-4-carboxylic acid], the melting point fell in the range of 235 to 237 °C. Also, the MIC in data set [1] is less than 125 µg/mL. Also, in data set [2], the MIC worked out at 62.5 µg/mL (≈ 153 µM). Further, the MIC in data set [3] was more than 125 µg/mL.
In turn, `Cc1c(-c2cc(C(=O)O)c3cc(Cl)ccc3n2)nnn1-c1ccc(Br)cc1` [Compound 5o, 2-(1-(4-Bromophenyl)-5-methyl-1H-1,2,3-triazol-4-yl)-6-chlorobenzo [b]pyridine-4-carboxylic acid] gave a melting point of more than 300 °C. Besides, the MIC in data set [1] was less than 125 µg/mL. Further, the MIC in data set [2] is 15 µg/mL (≈ 33.8 µM). The MIC in data set [3] is more than 125 µg/mL. The “IC50-L929/MIC Mtb (cytotoxicity / discriminatory index)” value in data set [4] is 10.
Regarding `NNC(=O)c1ccncc1` [INH, isoniazid, reference compound], the MIC in data set [1] came out at 0.05 µg/mL (≈ 0.365 µM); in data set [2], 0.1 µg/mL (≈ 0.729 µM); in data set [3] it was 0.1 µg/mL (≈ 0.729 µM). Also, the half-maximal inhibitory concentration (IC50) in data set [5] came out at 240 ± 10 nM.
In the case of `Cc1c(-c2cc(C(=O)O)c3ccccc3n2)nnn1-c1ccccc1` [Compound 5a, 2-(5-Methyl-1-phenyl-1H-1,2,3-triazol-4-yl)benzo [b]pyridine-4-carboxylic acid], the melting point lay within 278 to 280 °C. Further, in data set [1], the MIC is less than 125 µg/mL. Besides, in data set [2], the MIC is 125 µg/mL (≈ 378 µM). Further, the MIC in data set [3] was more than 125 µg/mL.
Taken in the same sequence, the figures for `Cc1c(-c2cc(C(=O)O)c3cc(Br)ccc3n2)nnn1-c1ccccc1` [Compound 5q, 6-Bromo-2-(5-methyl-1-phenyl-1H-1,2,3-triazol-4-yl)benzo [b]pyridine-4-carboxylic acid] were more than 300 °C, less than 125 µg/mL, 15 µg/mL (≈ 36.7 µM) and more than 125 µg/mL.
The compound `Cc1c(-c2cc(C(=O)O)c3cc(Br)ccc3n2)nnn1-c1cccc(Cl)c1` [Compound 5s, 6-Bromo-2-(1-(3-chlorophenyl)-5-methyl-1H-1,2,3-triazol-4-yl)benzo [b]pyridine-4-carboxylic acid] came in with a melting point of more than 300 °C. For the same compound, the MIC in data set [1] was less than 125 µg/mL. In data set [2], this compound registered an MIC of 15 µg/mL (≈ 33.8 µM). In addition, the MIC in data set [3] is more than 125 µg/mL. Besides, the “IC50-L929/MIC Mtb (cytotoxicity / discriminatory index)” value in data set [4] is 13.
`Cc1c(-c2cc(C(=O)O)c3cc(Cl)ccc3n2)nnn1-c1cccc(Br)c1` [Compound 5L, 2-(1-(3-Bromophenyl)-5-methyl-1H-1,2,3-triazol-4-yl)-6-chlorobenzo [b]pyridine-4-carboxylic acid]: the melting point lay in the range of 248 to 250 °C. In addition, the MIC in data set [1] is less than 125 µg/mL. In data set [2], this compound had an MIC of 15 µg/mL (≈ 33.8 µM). Further, the MIC in data set [3] was more than 125 µg/mL. For the same compound, the “IC50-L929/MIC Mtb (cytotoxicity / discriminatory index)” value in data set [4] was 13.
Taken in the same sequence, the figures for `COc1ccc(-n2nnc(-c3cc(C(=O)O)c4cc(Cl)ccc4n3)c2C)cc1` [Compound 5j, 6-Chloro-2-(1-(4-methoxyphenyl)-5-methyl-1H-1,2,3-triazol-4-yl)benzo [b]pyridine-4-carboxylic acid] were 287 to 289 °C, less than 125 µg/mL, 15 µg/mL (≈ 38 µM), more than 125 µg/mL and 10.
`Cc1c(-c2cc(C(=O)O)c3ccccc3n2)nnn1-c1ccc(Cl)cc1` [Compound 5f, 2-(1-(4-Chlorophenyl)-5-methyl-1H-1,2,3-triazol-4-yl)benzo [b]pyridine-4-carboxylic acid] had a melting point of 246 to 248 °C. Further, the MIC in data set [1] was less than 125 µg/mL. The compound also returned an MIC in data set [2] of 62.5 µg/mL (≈ 171 µM). In addition, the MIC in data set [3] was more than 125 µg/mL.
`Cc1c(-c2cc(C(=O)O)c3cc(Cl)ccc3n2)nnn1-c1cccc(Cl)c1` [Compound 5k, 6-Chloro-2-(1-(3-chlorophenyl)-5-methyl-1H-1,2,3-triazol-4-yl)benzo [b]pyridine-4-carboxylic acid] displayed a melting point of more than 300 °C. In data set [1], the MIC was less than 125 µg/mL. The compound also had an MIC in data set [2] of 15 µg/mL (≈ 37.6 µM). In addition, in data set [3], the MIC was more than 125 µg/mL. The “IC50-L929/MIC Mtb (cytotoxicity / discriminatory index)” value in data set [4] is on record as 13.
`Cc1c(-c2cc(C(=O)O)c3cc(Br)ccc3n2)nnn1-c1ccc([N+](=O)[O-])cc1` [Compound 5x, 6-Bromo-2-(5-methyl-1-(4-nitrophenyl)-1H-1,2,3-triazol-4-yl)benzo [b]pyridine-4-carboxylic acid] gave a melting point of 236 to 238 °C. Also, in data set [1], the MIC was less than 125 µg/mL. Besides, the MIC in data set [2] was 125 µg/mL (≈ 275 µM). In addition, the MIC in data set [3] is more than 125 µg/mL.
Taken in the same sequence, the figures for `Cc1c(-c2cc(C(=O)O)c3ccccc3n2)nnn1-c1cccc(Cl)c1` [Compound 5c, 2-(1-(3-Chlorophenyl)-5-methyl-1H-1,2,3-triazol-4-yl)benzo [b]pyridine-4-carboxylic acid] were 276 to 277 °C, less than 125 µg/mL, 62.5 µg/mL (≈ 171 µM) and more than 125 µg/mL.
In the case of `Cc1c(-c2cc(C(=O)O)c3cc(Br)ccc3n2)nnn1-c1cccc(Br)c1` [Compound 5t, 6-Bromo-2-(1-(3-bromophenyl)-5-methyl-1H-1,2,3-triazol-4-yl)benzo [b]pyridine-4-carboxylic acid], the melting point lay within 299 to 300 °C. In addition, in data set [1], the MIC was less than 125 µg/mL. The same compound gave an MIC in data set [2] of 15 µg/mL (≈ 30.7 µM). The MIC in data set [3] was more than 125 µg/mL. For the same compound, the “IC50-L929/MIC Mtb (cytotoxicity / discriminatory index)” value in data set [4] was 13.
With `Cc1c(-c2cc(C(=O)O)c3ccccc3n2)nnn1-c1cccc(Br)c1` [Compound 5d, 2-(1-(3-Bromophenyl)-5-methyl-1H-1,2,3-triazol-4-yl)benzo [b]pyridine-4-carboxylic acid], the melting point fell in the range of 248 to 250 °C. The MIC in data set [1] is less than 125 µg/mL. In data set [2], this compound yielded an MIC of 62.5 µg/mL (≈ 153 µM). Further, the MIC in data set [3] was more than 125 µg/mL.
On the same counts, the results for `COc1ccc(-n2nnc(-c3cc(C(=O)O)c4ccccc4n3)c2C)cc1` [Compound 5b, 2-(1-(4-Methoxyphenyl)-5-methyl-1H-1,2,3-triazol-4-yl)benzo[b]pyridine-4-carboxylic acid] are 222 to 224 °C, less than 125 µg/mL, 62.5 µg/mL (≈ 173 µM) and more than 125 µg/mL.
For `Cc1c(-c2cc(C(=O)O)c3ccccc3n2)nnn1-c1ccc([N+](=O)[O-])cc1` [Compound 5h, 2-(5-Methyl-1-(4-nitrophenyl)-1H-1,2,3-triazol-4-yl)benzo [b]pyridine-4-carboxylic acid], the melting point lay in the range of 265 to 267 °C. Besides, the MIC in data set [1] was less than 125 µg/mL. Moreover, the MIC in data set [2] was determined as 125 µg/mL (≈ 333 µM). The MIC in data set [3] is more than 125 µg/mL.
On the same counts, the results for `Cc1c(-c2cc(C(=O)O)c3cc(Br)ccc3n2)nnn1-c1ccc(F)cc1` [Compound 5u, 6-Bromo-2-(1-(4-fluorophenyl)-5-methyl-1H-1,2,3-triazol-4-yl)benzo [b]pyridine-4-carboxylic acid] are more than 300 °C, less than 125 µg/mL, 62.5 µg/mL (≈ 146 µM) and more than 125 µg/mL.
On the same counts, the results for `Cc1c(-c2cc(C(=O)O)c3ccccc3n2)nnn1-c1ccc(F)cc1` [Compound 5e, 2-(1-(4-Fluorophenyl)-5-methyl-1H-1,2,3-triazol-4-yl)benzo [b]pyridine-4-carboxylic acid] are 290 to 291 °C, less than 125 µg/mL, 125 µg/mL (≈ 359 µM) and more than 125 µg/mL.
On the same counts, the results for `Cc1c(-c2cc(C(=O)O)c3cc(Cl)ccc3n2)nnn1-c1ccc(F)cc1` [Compound 5m, 6-Chloro-2-(1-(4-fluorophenyl)-5-methyl-1H-1,2,3-triazol-4-yl)benzo [b]pyridine-4-carboxylic acid] are 298 to 299 °C, less than 125 µg/mL, 62.5 µg/mL (≈ 163 µM) and more than 125 µg/mL.

The term melting point denotes the temperature of the solid-liquid transition. The IC50 is the concentration that inhibits the measured activity by half.
